In the NIST ThermoML archive (doi:10.1016/j.jct.2016.09.005):

Settings: Fluid (supercritical or subcritical phases), Brillouin Light Scattering

CC(C)OC(C)C [diisopropyl ether]
Settings	speed of sound [m/s]
541.51 K, 6500 kPa	190.79
544.16 K, 3500 kPa	139.1
545.71 K, 4500 kPa	129.23
546.93 K, 5500 kPa	147.8
547.24 K, 6500 kPa	183.8
551 K, 3500 kPa	147.92
554.09 K, 4500 kPa	137.04
554.6 K, 5500 kPa	142.16
555.23 K, 6500 kPa	172.31
556.02 K, 3500 kPa	156.04
562.71 K, 3500 kPa	162.02
564.46 K, 4500 kPa	151.45
564.68 K, 5500 kPa	144.2
564.77 K, 6500 kPa	162.69
568.12 K, 3500 kPa	172.59
570.23 K, 4500 kPa	159.8
570.32 K, 6500 kPa	155.46
571.21 K, 5500 kPa	149.54
572.24 K, 3500 kPa	178.24
574.75 K, 6500 kPa	156.08
575.87 K, 4500 kPa	166.92
576.95 K, 5500 kPa	157.61
578.05 K, 3500 kPa	184.2
580.81 K, 6500 kPa	160.95
582.97 K, 4500 kPa	176.94
583.61 K, 3500 kPa	191.39
583.79 K, 5500 kPa	168.45
586.87 K, 6500 kPa	165.44
587.28 K, 5500 kPa	174.08
588.06 K, 4500 kPa	184.23
588.82 K, 3500 kPa	197.63
591.77 K, 3500 kPa	201.8
592.03 K, 6500 kPa	173.69
592.07 K, 4500 kPa	191.01
592.51 K, 5500 kPa	179.58
595.88 K, 6500 kPa	181.47
597.6 K, 4500 kPa	197.93
597.6 K, 5500 kPa	185.96
597.62 K, 3500 kPa	207.01
602.12 K, 3500 kPa	213.74
602.56 K, 4500 kPa	203.87
603.22 K, 6500 kPa	189.62
603.37 K, 5500 kPa	196.7
607.19 K, 4500 kPa	209.92
607.26 K, 5500 kPa	201.24
608.3 K, 3500 kPa	220.34
608.98 K, 6500 kPa	198.69
612.23 K, 3500 kPa	223.95
612.23 K, 4500 kPa	214.66
612.33 K, 5500 kPa	208.84
612.73 K, 6500 kPa	201.04
617.47 K, 4500 kPa	220.52
618 K, 3500 kPa	231.2
618.05 K, 5500 kPa	215.78
618.31 K, 6500 kPa	208.27
622.27 K, 3500 kPa	235.81
623.05 K, 5500 kPa	219.38
623.51 K, 4500 kPa	226.31
623.75 K, 6500 kPa	213.55
626.85 K, 5500 kPa	224.98
627.63 K, 6500 kPa	217.44
627.65 K, 3500 kPa	240.7
628.55 K, 4500 kPa	231.82
632.23 K, 4500 kPa	235.83
632.72 K, 5500 kPa	227.82
632.86 K, 3500 kPa	243.95
633.54 K, 6500 kPa	221.63
637.16 K, 6500 kPa	225.18
638.22 K, 3500 kPa	249.88
638.59 K, 4500 kPa	240.88
638.75 K, 5500 kPa	232.85
642.34 K, 6500 kPa	228.66
643.55 K, 4500 kPa	245.98
643.72 K, 3500 kPa	254.88
644.35 K, 5500 kPa	237.43
648.15 K, 5500 kPa	239.71
648.16 K, 6500 kPa	231.72
648.36 K, 3500 kPa	257.88
648.6 K, 4500 kPa	250.01
652.25 K, 4500 kPa	253.58
652.83 K, 5500 kPa	244.43
653.38 K, 3500 kPa	263.46
653.97 K, 6500 kPa	236.88
657.92 K, 5500 kPa	246.91
658.37 K, 4500 kPa	256.34
658.49 K, 6500 kPa	239.95
658.61 K, 3500 kPa	265.77
662.18 K, 5500 kPa	249.76
662.28 K, 4500 kPa	259.34
663.04 K, 6500 kPa	242.15
664.11 K, 3500 kPa	269.84
667.5 K, 5500 kPa	252.59
667.83 K, 4500 kPa	264.18
667.84 K, 6500 kPa	245.05
668.59 K, 3500 kPa	271.89
670.57 K, 5500 kPa	254.53
671.41 K, 6500 kPa	247.45
672.38 K, 4500 kPa	265.43
672.56 K, 3500 kPa	274.52
